Test results published in patent US5747535A, “Selective thrombin inhibitors” (priority 1995, dated 1998).
Where two headings read alike, the source gives them in different places.

Experiments:
bovine thrombin = bovine thrombin (Bos taurus, UniProt P00735); assay: biochemical;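 also: bovine thrombin cleaving the chromogenic substrate Chromozym TH, with para-nitroaniline release tracked as absorbance change over time to give initial rates, in Tris buffer at pH 7.8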
Text: The thrombin inhibitory effect of the compound of formula (I) according to the present invention can be identified by determination of a dissociation constant Ki represented by the following equation according to the known method described in literature [see, Methods in enzymology V. 80,p341-361;Biochemistry 27,p2144-2151 (1988)].
The dissociation constant Ki denotes the degree of dissociation of the enzyme-thrombin inhibitor complex. […] Such dissociation constant can be determined by reacting thrombin with a certain substrate which develops a color when it is hydrolyzed by the action of thrombin, and then measuring the degree of color development as a function of time by means of spectrophotometry.
Chromozym TH is hydrolyzed by thrombin to produce yellow para-nitroaniline. Accordingly, the amount of yellow para-nitroaniline thus produced can be measured as the change of absorbance in the course of time to determine the thrombin inhibitory activity of the compound according to the present invention. That is, the enzyme activity can be determined from the rate of change in absorbance and then can be directly connected with the ability of the thrombin inhibitor to inhibit the enzyme activity (see, Methods in Enzymology, V. 80,p341-361,Biochemistry 27, p2144-2151, 1988).
The ability of the compound according to the present invention to inhibit the thrombin activity was determined as described in the following.
1160 μl of 0.1M tris buffered solution (pH 7.8) containing 150 mM NaCl and 0.1% PEG 8000 (polyethylene glycol, molecular weight about 8,000) was added to a 1.5 ml cuvette. Chromozym TH was dissolved in dimethylsulfoxide(DMSO) in the concentration of 10mM and the resulting solution was diluted with the said tris buffered solution to the concentration of 0.1 mM, which was then used as the substrate solution. 225 μl of 0.1 mM substrate solution thus prepared was added to the cuvette. The inhibitor solution was prepared by dissolving the thrombin inhibitor compound according to the present invention in dimethylsulfoxide in the concentration of 10 mg/ml and then diluting the resulting solution with the said tris buffered solution to the concentration of 0.1 mg/ml, 0.01 mg/ml, 0.001 mg/ml and 0.0001 mg/ml. The resulting inhibitor solution was taken in an amount corresponding to 0 to 10 μg as the inhibitor and then diluted with tris buffered solution to make the total volume of 100 μl which was added to the cuvette.
15 μl of bovine thrombin solution dissolved in above tris buffered solution in the concentration of 0.1 mg/ml was added to the cuvette to initiate the enzyme hydrolysis reaction. The amount of para-nitroaniline produced for 2 minutes from the moment the enzyme is added was monitored by measuring the absorbance at 381 nm. The continuous spectrum of absorbance to reaction time was depicted. The same experiments were conducted for various concentration of the inhibitor to obtain the continuous spectrum.
In each spectrum, the initial velocity Vi was obtained from the slope within initial 30 seconds of the reaction time and then a graph for the reciprocal value of initial velocity(1/Vi) to the inhibitor concentration was depicted. From the graph, the primary equation satisfying the points depicted thereon was obtained and then the value Ki was calculated from the x intercept of the primary equation using the enzyme reaction equation.
The velocity constant Ks was obtained using the same solution in the same concentration as in determination of the value Ki but using the following experimental procedure.

trypsin = molecular target: T1, trypsin (Bos taurus, UniProt P00760); assay: biochemical; format: biochemical; details: 20 μM substrate; read-out: Inhibitory activity for trypsin, Ki
T1 sequence (P00760 24-246): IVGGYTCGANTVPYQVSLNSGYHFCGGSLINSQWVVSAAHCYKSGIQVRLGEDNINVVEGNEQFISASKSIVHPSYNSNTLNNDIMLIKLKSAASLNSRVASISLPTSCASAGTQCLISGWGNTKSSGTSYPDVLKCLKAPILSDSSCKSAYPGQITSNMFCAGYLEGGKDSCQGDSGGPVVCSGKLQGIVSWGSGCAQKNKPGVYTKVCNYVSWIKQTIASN
Protocol: To identify the selectivity for thrombin over trypsin of the compound of the present invention, the inhibitory activity for trypsin of the compound of formula (I) is measured as Ki value according to the same method as the above method for determination of thrombin inhibitory activity, and then the ratio of the activity for trypsin to the activity for thrombin is calculated. In this case, the procedure for determination of inhibitory activity for trypsin is substantially identical to that for thrombin, except that N-benzoyl-Val-Gly-Arg para-nitroanilide hydrochloride is used as the substrate.
As the substrate 20μM solution of N-benzoyl-Val-Gly-Arg-p-nitroanilide hydrochloride was used, and the inhibitor was used in various concnetrations within the range of […]. In addition, trypsin was dissolved in 0.1N HCl, adjusted to the concentration of 45 μg/ml with the said tris buffered solution just before the experiment, and then used in an amount of 40μl. As in the experiment for thrombin, a total volume of the reaction solution was 1.5 ml and the remaining procedure was conducted in the same manner.

[1] = Test 2: Pharmacokinetic test in dogs; format: in vivo, dog; details: for concentration at 2 min / concentration at 5 min / concentration at 10 min / concentration at 20 min / concentration at 0.5 h / concentration at 0.75 h / concentration at 1 h / concentration at 1.5 h / concentration at 2 h / concentration at 4 h / concentration at 5 h / concentration at 6 h / concentration at 3 h: 10 mg/kg; for concentration at 0.5 h: 30 min; for concentration at 0.75 h: 45 min; for concentration at 1 h: 60 min; for concentration at 1.5 h: 90 min; for concentration at 2 h: 120 min; for concentration at 4 h: 240 min; for concentration at 5 h: 300 min; for concentration at 6 h: 360 min; for concentration at 3 h: 180 min; for bioavailability: oral route
Protocol: Male rats and dogs were fasted for 24 hours and used as the experimental animals. […] Bloods were collected from the animals at given time intervals and then immediately mixed with methanol and zinc sulfate. Finally, the upper layer of the mixture was quantitatively analyzed at ultraviolet wavelength of 231 nm to measure the drug concentration in blood by HPLC.

[2] = dog, blood, iv, Dog-1, i.v. 10 mg/kg, read-out: Blood concentration
[3] = dog, blood, iv, Dog-2, i.v. 10 mg/kg, read-out: Blood concentration
[4] = dog, blood, iv, dogs, i.v. 10 mg/kg, read-out: Blood concentration, Average(+error)
[5] = dog, blood, po, Dog-1, oral 10 mg/kg, read-out: Blood concentration
[6] = dog, blood, po, Dog-2, oral 10 mg/kg, read-out: Blood concentration
[7] = dog, blood, po, dogs, oral 10 mg/kg, read-out: Blood concentration, Average(+error)

## CN(C(=O)[C@H](Cc1ccc(C(=N)NN)cc1)NS(=O)(=O)c1ccc2ccccc2c1)C1CCCC1 [Example 1, (S)-N-cyclopentyl-N-methyl-3-(4-amidrazonophenyl)-2-(2-naphthylsulfonylamino)propionamide]
Bovine thrombin
  Ki: 3.8 nM
trypsin
  Ki: 3190 nM
[1]; [2]
  concentration at 2 min: 29100 ng/mL
  concentration at 5 min: 9080 ng/mL
  concentration at 10 min: 5940 ng/mL
  concentration at 20 min: 3610 ng/mL
  concentration at 0.5 h: 2430 ng/mL
  concentration at 0.75 h: 1940 ng/mL
  concentration at 1 h: 1470 ng/mL
  concentration at 1.5 h: 1270 ng/mL
  concentration at 2 h: 1090 ng/mL
  concentration at 4 h: 544 ng/mL
  concentration at 5 h: 315 ng/mL
  concentration at 6 h: 317 ng/mL
[1]; [3]
  concentration at 2 min: 36600 ng/mL
  concentration at 5 min: 5230 ng/mL
  concentration at 10 min: 3280 ng/mL
  concentration at 20 min: 1800 ng/mL
  concentration at 0.5 h: 1340 ng/mL
  concentration at 0.75 h: 859 ng/mL
  concentration at 1 h: 690 ng/mL
  concentration at 1.5 h: 501 ng/mL
  concentration at 2 h: 377 ng/mL
  concentration at 4 h: 129 ng/mL
  concentration at 5 h: 107 ng/mL
  concentration at 6 h: 92 ng/mL
[1]; [4]
  concentration at 2 min: 32900 ng/mL
  concentration at 5 min: 7160 ng/mL
  concentration at 10 min: 4610 ng/mL
  concentration at 20 min: 2710 ng/mL
  concentration at 0.5 h: 1880 ng/mL
  concentration at 0.75 h: 1400 ng/mL
  concentration at 1 h: 1080 ng/mL
  concentration at 1.5 h: 885 ng/mL
  concentration at 2 h: 733 ng/mL
  concentration at 4 h: 337 ng/mL
  concentration at 5 h: 211 ng/mL
  concentration at 6 h: 204 ng/mL
[1]; [5]
  concentration at 10 min: 1390 ng/mL
  concentration at 20 min: 2080 ng/mL
  concentration at 0.5 h: 1940 ng/mL
  concentration at 0.75 h: 1890 ng/mL
  concentration at 1 h: 2220 ng/mL
  concentration at 1.5 h: 1270 ng/mL
  concentration at 2 h: 774 ng/mL
  concentration at 3 h: 663 ng/mL
  concentration at 4 h: 812 ng/mL
  concentration at 5 h: 51 ng/mL
  concentration at 6 h: 118 ng/mL
[1]; [6]
  concentration at 10 min: 15 ng/mL
  concentration at 20 min: 17 ng/mL
  concentration at 0.5 h: 105 ng/mL
  concentration at 0.75 h: 558 ng/mL
  concentration at 1 h: 1310 ng/mL
  concentration at 1.5 h: 935 ng/mL
  concentration at 2 h: 730 ng/mL
  concentration at 3 h: 616 ng/mL
  concentration at 4 h: 318 ng/mL
  concentration at 5 h: 222 ng/mL
  concentration at 6 h: 153 ng/mL
[1]; [7]
  concentration at 10 min: 702 ng/mL
  concentration at 20 min: 1050 ng/mL
  concentration at 0.5 h: 1020 ng/mL
  concentration at 0.75 h: 1220 ng/mL
  concentration at 1 h: 1760 ng/mL
  concentration at 1.5 h: 1100 ng/mL
  concentration at 2 h: 752 ng/mL
  concentration at 3 h: 640 ng/mL
  concentration at 4 h: 565 ng/mL
  concentration at 5 h: 136 ng/mL
  concentration at 6 h: 135 ng/mL
[1]; dog, blood, dogs, read-out: Bioavailability
  bioavailability: 61%
[1]; dog, blood, dogs, read-out: Elimination Half-life, Average + (error)
  half-life: 1.63 h
[1]; dogs vs argatroban (40 minutes) in human being
  elimination half-life in dogs compared with argatroban in human being: twice longer or more than that of commercially available argatroban
[1]; dogs vs rats, intravenous
  elimination half-life in dogs compared with rats: twice longer or more than that in rats
[1]; dogs, intravenous
  distribution and disappearance after intravenous injection: rapidly distributed and then slowly disappeared
[1]; dogs
  bioavailability: 61 (15) %
[1]; oral absorption and elimination half-life
  pharmacokinetic characteristics compared with argatroban: better pharmacokinetic characteristics than argatroban
